Key:
[1] = system: Glomerella lacenarium (Colletotrichum lacenarium); assay: Glomerella lagenarium / liquid culture (anthracnose); type: cell-based; conditions: 200 ppm in the formulation, inhibition of growth measured photometrically, compared to untreated checks, read-out: disease control
Protocol: Glomerella lacenarium (Colletotrichum lacenarium)/Liquid Culture (Anthracnose) Conidia of the fungus from cryogenic storage are directly mixed into nutrient broth (PDB potato dextrose broth). After placing a (DMSO) solution of test compound into a microtiter plate (96-well format), the nutrient broth containing the fungal spores is added. The test plates are incubated at 24° C. and the inhibition of growth is measured photometrically 3 to 4 days after application.

[2] = system: Mycosphaerella raminicola (Septoria tritici); assay: Mycosphaerella graminicola / liquid culture (Septoria blotch); type: cell-based; conditions: 200 ppm in the formulation, inhibition of growth determined photometrically, compared to untreated checks, read-out: disease control
Protocol: (§1) Mycosphaerella raminicola (Septoria tritici)/Liquid Culture (Septoria blotch) Conidia of the fungus from cryogenic storage are directly mixed into nutrient broth (PDB potato dextrose broth). After placing a (DMSO) solution of test compound into a microtiter plate (96-well format), the nutrient broth containing the fungal spores is added. The test plates are incubated at 24° C. and the inhibition of growth is determined photometrically 4 to 5 days after application.

[3] = system: Mycosphaerella arachidis (Cercospora arachidicola); assay: Mycosphaerella arachidis / liquid culture (early leaf spot); type: cell-based; conditions: 200 ppm in the formulation, inhibition of growth determined photometrically, compared to untreated checks, read-out: disease control
Protocol: as §1, with “arachidis (Cercospora arachidicola)/Liquid” for “raminicola (Septoria tritici)/Liquid”, “(Early Leaf Spot)” for “(Septoria blotch)”, “4-5” for “4 to 5”

Gaeumannomyces graminis = Gaeumannomyces graminis / liquid culture (take-all of cereals); type: cell-based; conditions: 200 ppm in the formulation, inhibition of growth determined photometrically, compared to untreated control, read-out: disease control
Protocol: (§2) Gaeumannomyces graminis/Liquid Culture (Take-All of Cereals) Mycelial fragments of the fungus from cryogenic storage were directly mixed into nutrient broth (PDB potato dextrose broth). After placing a (DMSO) solution of test compound into a microtiter plate (96-well format), the nutrient broth containing the fungal spores is added. The test plates are incubated at 24° C. and the inhibition of growth is determined photometrically 4-5 days after application.

Pyrenophora teres = Pyrenophora teres / barley / leaf disc preventative (net blotch); type: in vivo; conditions: foliar, 200 ppm of the formulation, barley leaf segments cv. Hasso, compared to untreated checks, read-out: disease control
Protocol: Pyrenophora teres/Barley/Leaf Disc Preventative (Net Blotch) Barley leaf segments cv. Hasso are placed on agar in a multiwell plate (24-well format) and sprayed with the test compound formulated with DMSO and Tween20 and diluted in water. The leaf segments are inoculated with a spore suspension of the fungus 2 days after application. The inoculated leaf segments are incubated at 20° C. and 65% rh under a light regime of 12 h light/12 h darkness in a climate cabinet and the activity of a compound is assessed as disease control compared to untreated when an appropriate level of disease damage appears in untreated check leaf segments (5 to 7 days after application).

[4] = system: Puccinia recondita f. Sp. Tritici; assay: Puccinia recondita f. sp. tritici / wheat / leaf disc preventative (brown rust); type: in vivo; conditions: foliar, 200 ppm in the formulation, wheat leaf segments cv. Kanzler, compared to untreated checks, read-out: disease control
[5] = system: Botrvotinia fuckeliana (Botrvtis cinerea); assay: Botryotinia fuckeliana / liquid culture (gray mould); type: cell-based; conditions: Botrytis cinerea, 200 ppm in the formulation, inhibition of growth determined photometrically, compared to untreated checks, read-out: disease control
Protocol: as §1, with “Botrvotinia fuckeliana (Botrvtis cinerea)/Liquid” for “Mycosphaerella raminicola (Septoria tritici)/Liquid”, “(Gray Mould)” for “(Septoria blotch)”, “(Vogels” for “(PDB potato dextrose”, “3-4” for “4 to 5”

[6] = system: Monocraphella nivalis (Microdochium nivale); assay: Monographella nivalis / liquid culture (foot rot cereals); type: cell-based; conditions: 200 ppm in the formulation, inhibition of growth determined photometrically, compared to untreated checks, read-out: disease control
Protocol: as §2, with “Monocraphella nivalis (Microdochium nivale)/Liquid” for “Gaeumannomyces graminis/Liquid”, “(Foot Rot” for “(Take-All of”, “Conidia” for “Mycelial fragments”, “are” for “were”

[7] = system: Blumeria graminis f. Sp. Tritici (Erysiphe graminis f. Sp. Tritici); assay: Blumeria graminis f. sp. tritici / wheat / leaf disc preventative (powdery mildew on wheat); type: in vivo; conditions: foliar, 200 ppm in the formulation, wheat leaf segments cv. Kanzler, compared to untreated checks, read-out: disease control
Text: Blumeria graminis f. Sp. Tritici (Erysiphe graminis f. Sp. Tritici)/Wheat/Leaf Disc Preventative (Powdery Mildew on Wheat) Wheat leaf segments cv. Kanzler are placed on agar in a multiwell plate (24-well format) and sprayed with the test compound formulated with DMSO and Tween20 and diluted in water. The leaf disks are inoculated by shaking powdery mildew infected plants above the test plates 1 day after application.

[8] = system: Magnaporthe risea (Pyricularia oryzae); assay: whole plant or invertebrate; type: in vivo; conditions: foliar, read-out: disease control

## CC(NC(=O)c1nc(Nc2cc(F)cc(F)c2)sc1Br)C1CCCCC1 (stereo not shown) [Compound I.e.2, 5-bromo-N-(1-cyclohexylethyl)-2-(3,5-difluoroanilino)thiazole-4-carboxamide]
[1]
  inhibition of growth at 200 ppm: ≥ 80%
[2]
  inhibition of growth at 200 ppm: ≥ 80%
[3]
  inhibition of growth at 200 ppm: ≥ 80%
Gaeumannomyces graminis
  inhibition of growth at 200 ppm: ≥ 80%
Pyrenophora teres
  pest or weed control at 200 µg/mL: ≥ 80%
[4]
  pest or weed control at 200 ppm: ≥ 80%
[5]
  inhibition of growth at 200 ppm: ≥ 80%
[6]
  inhibition of growth at 200 ppm: ≥ 80%
[7]
  pest or weed control at 200 ppm: ≥ 80%

## Cc1sc(Nc2cc(F)cc(F)c2)nc1C(=O)NC(C)(C#N)C(C)C (stereo not shown) [Compound I.n.3, N-(1-cyano-1,2-dimethyl-propyl)-2-(3,5-difluoroanilino)-5-methyl-thiazole-4-carboxamide]
[1]
  inhibition of growth at 200 ppm: ≥ 80%
[2]
  inhibition of growth at 200 ppm: ≥ 80%
[3]
  inhibition of growth at 200 ppm: ≥ 80%
Gaeumannomyces graminis
  inhibition of growth at 200 ppm: ≥ 80%
[8]
  pest or weed control at 200 ppm: ≥ 80%
[4]
  pest or weed control at 200 ppm: ≥ 80%
[5]
  inhibition of growth at 200 ppm: ≥ 80%
[6]
  inhibition of growth at 200 ppm: ≥ 80%
[7]
  pest or weed control at 200 ppm: ≥ 80%

## CC12CCCC(NC(=O)c3nc(Nc4cc(F)cc(F)c4)sc3Br)C1CC2 (stereo not shown) [I.ah.2, 5-bromo-2-(3,5-difluoroanilino)-N-(6-methyl-2-bicyclo[4.2.0]octanyl)thiazole-4-carboxamide]
[1]
  inhibition of growth at 200 ppm: ≥ 80%
[2]
  inhibition of growth at 200 ppm: ≥ 80%
Gaeumannomyces graminis
  inhibition of growth at 200 ppm: ≥ 80%
[8]
  pest or weed control at 200 ppm: ≥ 80%
[4]
  pest or weed control at 200 ppm: ≥ 80%
[5]
  inhibition of growth at 200 ppm: ≥ 80%
[6]
  inhibition of growth at 200 ppm: ≥ 80%
[7]
  pest or weed control at 200 ppm: ≥ 80%

## Cc1sc(Nc2cc(F)cc(F)c2)nc1C(=O)NC1CCCC2(C)CCC12 (stereo not shown) [I.ah.3, 2-(3,5-difluoroanilino)-5-methyl-N-(6-methyl-2-bicyclo[4.2.0]octanyl)thiazole-4-carboxamide]
[1]
  inhibition of growth at 200 ppm: ≥ 80%
[2]
  inhibition of growth at 200 ppm: ≥ 80%
[3]
  inhibition of growth at 200 ppm: ≥ 80%
Gaeumannomyces graminis
  inhibition of growth at 200 ppm: ≥ 80%
[5]
  inhibition of growth at 200 ppm: ≥ 80%
[6]
  inhibition of growth at 200 ppm: ≥ 80%

## Cc1sc(Nc2cc(F)cc(F)c2)nc1C(=O)NC1CC12CC2 (stereo not shown) [I.bb.3, 2-(3,5-difluoroanilino)-5-methyl-N-spiro[2.2]pentan-2-yl-thiazole-4-carboxamide]
[1]
  inhibition of growth at 200 ppm: ≥ 80%
[2]
  inhibition of growth at 200 ppm: ≥ 80%
[3]
  inhibition of growth at 200 ppm: ≥ 80%
[8]
  pest or weed control at 200 ppm: ≥ 80%
[4]
  pest or weed control at 200 ppm: ≥ 80%
other
  melting point: 145 to 175 °C
[6]
  inhibition of growth at 200 ppm: ≥ 80%
[7]
  pest or weed control at 200 ppm: ≥ 80%

## Cc1sc(Nc2cc(F)nc(F)c2)nc1C(=O)NC1CC12CC2 (stereo not shown) [I.bb.43, 2-[(2,6-difluoro-4-pyridyl)amino]-5-methyl-N-spiro[2.2]pentan-2-yl-thiazole-4-carboxamide]
[1]
  inhibition of growth at 200 ppm: ≥ 80%
[2]
  inhibition of growth at 200 ppm: ≥ 80%
[3]
  inhibition of growth at 200 ppm: ≥ 80%
Pyrenophora teres
  pest or weed control at 200 µg/mL: ≥ 80%
[8]
  pest or weed control at 200 ppm: ≥ 80%
[4]
  pest or weed control at 200 ppm: ≥ 80%
other
  melting point: 129 to 158 °C
[6]
  inhibition of growth at 200 ppm: ≥ 80%
[7]
  pest or weed control at 200 ppm: ≥ 80%

## Cc1sc(Nc2cc(F)cc(F)c2)nc1C(=O)NC(C)C1CCCCC1 (stereo not shown) [I.e.3, N-(1-cyclohexylethyl)-2-(3,5-difluoroanilino)-5-methyl-thiazole-4-carboxamide]
[1]
  inhibition of growth at 200 ppm: ≥ 80%
[2]
  inhibition of growth at 200 ppm: ≥ 80%
[3]
  inhibition of growth at 200 ppm: ≥ 80%
Gaeumannomyces graminis
  inhibition of growth at 200 ppm: ≥ 80%
Pyrenophora teres
  pest or weed control at 200 µg/mL: ≥ 80%
[8]
  pest or weed control at 200 ppm: ≥ 80%
[4]
  pest or weed control at 200 ppm: ≥ 80%
[6]
  inhibition of growth at 200 ppm: ≥ 80%
[7]
  pest or weed control at 200 ppm: ≥ 80%

## O=C(NC1CCC12CCC2)c1nc(Nc2cc(F)cc(F)c2)sc1Br (stereo not shown) [I.r.2, 5-bromo-2-(3,5-difluoroanilino)-N-spiro[3.3]heptan-7-yl-thiazole-4-carboxamide]
[1]
  inhibition of growth at 200 ppm: ≥ 80%
[2]
  inhibition of growth at 200 ppm: ≥ 80%
[3]
  inhibition of growth at 200 ppm: ≥ 80%
Gaeumannomyces graminis
  inhibition of growth at 200 ppm: ≥ 80%
Pyrenophora teres
  pest or weed control at 200 µg/mL: ≥ 80%
[8]
  pest or weed control at 200 ppm: ≥ 80%
[4]
  pest or weed control at 200 ppm: ≥ 80%
[5]
  inhibition of growth at 200 ppm: ≥ 80%
[6]
  inhibition of growth at 200 ppm: ≥ 80%
[7]
  pest or weed control at 200 ppm: ≥ 80%

## Cc1sc(Nc2cc(F)cc(F)c2)nc1C(=O)NC1CCC12CCC2 (stereo not shown) [I.r.3, 2-(3,5-difluoroanilino)-5-methyl-N-spiro[3.3]heptan-7-yl-thiazole-4-carboxamide]
[1]
  inhibition of growth at 200 ppm: ≥ 80%
[2]
  inhibition of growth at 200 ppm: ≥ 80%
[3]
  inhibition of growth at 200 ppm: ≥ 80%
Gaeumannomyces graminis
  inhibition of growth at 200 ppm: ≥ 80%
Pyrenophora teres
  pest or weed control at 200 µg/mL: ≥ 80%
[8]
  pest or weed control at 200 ppm: ≥ 80%
[4]
  pest or weed control at 200 ppm: ≥ 80%
[5]
  inhibition of growth at 200 ppm: ≥ 80%
[6]
  inhibition of growth at 200 ppm: ≥ 80%
[7]
  pest or weed control at 200 ppm: ≥ 80%

## Cc1sc(Nc2cc(F)cc(F)c2)nc1C(=O)NC1CCC12CCCC2 (stereo not shown) [I.s.3, 2-(3,5-difluoroanilino)-5-methyl-N-spiro[3.4]octan-3-yl-thiazole-4-carboxamide]
[1]
  inhibition of growth at 200 ppm: ≥ 80%
[2]
  inhibition of growth at 200 ppm: ≥ 80%
[3]
  inhibition of growth at 200 ppm: ≥ 80%
Gaeumannomyces graminis
  inhibition of growth at 200 ppm: ≥ 80%
Pyrenophora teres
  pest or weed control at 200 µg/mL: ≥ 80%
[8]
  pest or weed control at 200 ppm: ≥ 80%
[4]
  pest or weed control at 200 ppm: ≥ 80%
[6]
  inhibition of growth at 200 ppm: ≥ 80%
[7]
  pest or weed control at 200 ppm: ≥ 80%

## Cc1sc(Nc2cc(F)nc(F)c2)nc1C(=O)NC1CCC12CCCC2 (stereo not shown) [I.s.43, 2-[(2,6-difluoro-4-pyridyl)amino]-5-methyl-N-spiro[3.4]octan-3-yl-thiazole-4-carboxamide]
[1]
  inhibition of growth at 200 ppm: ≥ 80%
[2]
  inhibition of growth at 200 ppm: ≥ 80%
[3]
  inhibition of growth at 200 ppm: ≥ 80%
Pyrenophora teres
  pest or weed control at 200 µg/mL: ≥ 80%
[8]
  pest or weed control at 200 ppm: ≥ 80%
[4]
  pest or weed control at 200 ppm: ≥ 80%
other
  melting point: 156 to 162 °C
[5]
  inhibition of growth at 200 ppm: ≥ 80%
[6]
  inhibition of growth at 200 ppm: ≥ 80%
[7]
  pest or weed control at 200 ppm: ≥ 80%

## CC1(C)C2CCCC2C1NC(=O)c1nc(Nc2cc(F)cc(F)c2)sc1Br (stereo not shown) [I.y.2, 5-bromo-2-(3,5-difluoroanilino)-N-(6,6-dimethyl-7-bicyclo[3.2.0]heptanyl)thiazole-4-carboxamide]
[1]
  inhibition of growth at 200 ppm: ≥ 80%
[2]
  inhibition of growth at 200 ppm: ≥ 80%
[3]
  inhibition of growth at 200 ppm: ≥ 80%
Gaeumannomyces graminis
  inhibition of growth at 200 ppm: ≥ 80%
Pyrenophora teres
  pest or weed control at 200 µg/mL: ≥ 80%
[8]
  pest or weed control at 200 ppm: ≥ 80%
[4]
  pest or weed control at 200 ppm: ≥ 80%
[5]
  inhibition of growth at 200 ppm: ≥ 80%
[6]
  inhibition of growth at 200 ppm: ≥ 80%
[7]
  pest or weed control at 200 ppm: ≥ 80%

## Cc1sc(Nc2cc(F)cc(F)c2)nc1C(=O)NC1C2CCCC2C1(C)C (stereo not shown) [I.y.3, 2-(3,5-difluoroanilino)-N-(6,6-dimethyl-7-bicyclo[3.2.0]heptanyl)-5-methyl-thiazole-4-carboxamide]
[1]
  inhibition of growth at 200 ppm: ≥ 80%
[2]
  inhibition of growth at 200 ppm: ≥ 80%
[3]
  inhibition of growth at 200 ppm: ≥ 80%
Gaeumannomyces graminis
  inhibition of growth at 200 ppm: ≥ 80%
[8]
  pest or weed control at 200 ppm: ≥ 80%
[4]
  pest or weed control at 200 ppm: ≥ 80%
[6]
  inhibition of growth at 200 ppm: ≥ 80%
[7]
  pest or weed control at 200 ppm: ≥ 80%

— patent US10662182B2, “Microbiocidal thiazole derivatives” (SYNGENTA PARTICIPATIONS AG, priority 2016, dated 2020)
